One data set concerns MDCK cells. The following applies: cited from earlier work.
A further data set relates to Jurkat cells. The following applies: cited from earlier work.
Another data set relates to Wuhan95 virus. In kind it is cell-based.

The values below come from publication PMC4155405 (Nature communications, 2014).

Molecules are shown by their SMILES.

Turning to `NC(=O)c1nc(F)c[nH]c1=O` [favipiravir], in the data set with MDCK cells, the “cytotoxicity in MDCK cells” value is “No cytotoxicity”.

With `Nc1nc2c(ncn2[C@@H]2O[C@H](CO)[C@@H](O)[C@H]2O)c(=O)[nH]1` [guanosine], in the data set on Jurkat cells, the “ATP relative to un-treated control cells” value was 40% and the “GTP relative to un-treated control cells” value was 600%. The “reversal of ribavirin inhibition of Wuhan95 replication by guanosine” value in the data set on Wuhan95 virus is reported as “can restore Wuhan95 replication”.
